Values of other authors in patent publication US20250089716A1, “IMMEDIATE-RELEASE PESTICIDE FORMULATION” (priority 2022, published 2025).

Conditions: extender component; unit not given

Row | Water solubility | Compound
1 | 375 g/100 ml | Flactose
2 | 133 g/100 ml | O=C[C@H](O)[C@@H](O)[C@H](O)CO [Xylose]
3 | 100 g/100 ml | NC(N)=O [Urea]
4 | 235 g/100 ml | OC[C@@H](O)[C@@H](O)[C@H](O)[C@@H](O)CO [Sorbitol]

Row | Compound | Water solubility
5 | [Cl-].[Cl-].[Zn+2] [Zinc chloride] | 395 g/100 ml
6 | [Cl-].[K+] [Potassium chloride] | 34 g/100 ml
7 | OC[C@H]1O[C@@](CO)(O[C@H]2O[C@H](CO)[C@@H](O)[C@H](O)[C@H]2O)[C@@H](O)[C@@H]1O [Sucrose] | 202 g/100 ml
